Experimental data taken from publication PMC5218480 (PLoS ONE, 2017).

Tested on: MV-4-11 cells
Experiment: Gene expression microarray analysis (Affymetrix PrimeView) and GSEA
Type: cell-based, human
Set-up: RFU PODN (11730768_x_at) / Fold change /veh PODN (11730768_x_at) / RFU LINC00158 (11744669_a_at) / Fold change /veh LINC00158 (11744669_a_at) / RFU DUSP10 (11751237_a_at) / Fold change /veh DUSP10 (11751237_a_at) / RFU ID3 (11757404_x_at) / Fold change /veh ID3 (11757404_x_at) / RFU PLEKHG5 (11737974_s_at) / Fold change /veh PLEKHG5 (11737974_s_at) / RFU LRRC4B (11730491_at) / Fold change /veh LRRC4B (11730491_at) / RFU GIMAP4 (11747438_a_at) / Fold change /veh GIMAP4 (11747438_a_at) / RFU KRT8 (11758183_x_at) / Fold change /veh KRT8 (11758183_x_at) / RFU CNN1 (11734310_a_at) / Fold change /veh CNN1 (11734310_a_at) / RFU VPS37D (11726825_at) / Fold change /veh VPS37D (11726825_at) / RFU C10orf10 (11716522_x_at) / Fold change /veh C10orf10 (11716522_x_at) / RFU KIR2DL2 /// KIR2DL4 /// KIR2DL5A /// KIR2DL5B /// KIR2DS1 /// KIR2DS2 /// KIR2DS3 /// KIR2DS4 /// KIR3DL3 /// KIR3DL3 /// KIR3DS1 (11738374_at) / Fold change /veh KIR2DL2 /// KIR2DL4 /// KIR2DL5A /// KIR2DL5B /// KIR2DS1 /// KIR2DS2 /// KIR2DS3 /// KIR2DS4 /// KIR3DL3 /// KIR3DL3 /// KIR3DS1 (11738374_at) / RFU C1QL1 (11718748_at) / Fold change /veh C1QL1 (11718748_at) / RFU TMPRSS4 (11747572_a_at) / Fold change /veh TMPRSS4 (11747572_a_at) / RFU HAMP (11756126_x_at) / Fold change /veh HAMP (11756126_x_at) / RFU RNFT2 (11725882_a_at) / Fold change /veh RNFT2 (11725882_a_at) / RFU NR4A2 (11747474_a_at) / Fold change /veh NR4A2 (11747474_a_at) / RFU ABCC12 (11746883_a_at) / Fold change /veh ABCC12 (11746883_a_at) / RFU TMEM136 (11760407_x_at) / Fold change /veh TMEM136 (11760407_x_at) / RFU CLDN22 /// WWC2 (11732394_at) / Fold change /veh CLDN22 /// WWC2 (11732394_at) / RFU HLA-DPB1 (11760878_x_at) / Fold change /veh HLA-DPB1 (11760878_x_at) / RFU SPINT1 (11716480_a_at) / Fold change /veh SPINT1 (11716480_a_at) / RFU GAP43 (11754022_s_at) / Fold change /veh GAP43 (11754022_s_at) / RFU A4GNT (11735810_at) / Fold change /veh A4GNT (11735810_at) / RFU PRB3 (11715151_x_at) / Fold change /veh PRB3 (11715151_x_at) / RFU TUBB4B (11761932_at) / Fold change /veh TUBB4B (11761932_at) / RFU CAPN14 (11732068_a_at) / Fold change /veh CAPN14 (11732068_a_at) / RFU TMCC2 (11721928_a_at) / Fold change /veh TMCC2 (11721928_a_at) / RFU IRGQ (11745062_a_at) / Fold change /veh IRGQ (11745062_a_at) / RFU FAM174B (11720279_a_at) / Fold change /veh FAM174B (11720279_a_at) / RFU TMPRSS4 (11748680_a_at) / Fold change /veh TMPRSS4 (11748680_a_at) / RFU FAM212B (11763350_a_at) / Fold change /veh FAM212B (11763350_a_at) / RFU PLEKHG5 (11743358_a_at) / Fold change /veh PLEKHG5 (11743358_a_at) / RFU ZSCAN30 (11745921_a_at) / Fold change /veh ZSCAN30 (11745921_a_at) / RFU CMKLR1 (11741424_a_at) / Fold change /veh CMKLR1 (11741424_a_at) / RFU LOC101060620 /// MAPK8IP1 (11723275_at) / Fold change /veh LOC101060620 /// MAPK8IP1 (11723275_at) / RFU SPTSSB (11747773_x_at) / Fold change /veh SPTSSB (11747773_x_at) / RFU PRSS12 (11739890_at) / Fold change /veh PRSS12 (11739890_at) / RFU BIN1 (11741810_x_at) / Fold change /veh BIN1 (11741810_x_at) / RFU WNT11 (11732464_a_at) / Fold change /veh WNT11 (11732464_a_at) / RFU C10orf10 (11716521_a_at) / Fold change /veh C10orf10 (11716521_a_at) / RFU C5orf56 (11738089_at) / Fold change /veh C5orf56 (11738089_at) / RFU CYB561 (11721691_x_at) / Fold change /veh CYB561 (11721691_x_at) / RFU ANKRD19P (11752326_a_at) / Fold change /veh ANKRD19P (11752326_a_at) / RFU OR2T12 /// OR2T33 /// OR2T8 (11738714_s_at) / Fold change /veh OR2T12 /// OR2T33 /// OR2T8 (11738714_s_at) / RFU VCAN (11748164_a_at) / Fold change /veh VCAN (11748164_a_at) / RFU JSRP1 (11732532_at) / Fold change /veh JSRP1 (11732532_at) / RFU KRTAP10-11 (11738290_x_at) / Fold change /veh KRTAP10-11 (11738290_x_at) / RFU MYO3A (11730013_a_at) / Fold change /veh MYO3A (11730013_a_at) / RFU EBF3 (11725865_a_at) / Fold change /veh EBF3 (11725865_a_at) / RFU CAMK2N1 (11719241_x_at) / Fold change /veh CAMK2N1 (11719241_x_at) / RFU C5orf56 (11738088_a_at) / Fold change /veh C5orf56 (11738088_a_at) / RFU OLFML3 (11715873_a_at) / Fold change /veh OLFML3 (11715873_a_at) / RFU LOC100653217 /// NTM (11731650_a_at) / Fold change /veh LOC100653217 /// NTM (11731650_a_at) / RFU MAPK11 (11762145_a_at) / Fold change /veh MAPK11 (11762145_a_at) / RFU FIZ1 (11724087_x_at) / Fold change /veh FIZ1 (11724087_x_at) / RFU OASL (11726364_x_at) / Fold change /veh OASL (11726364_x_at) / RFU SOX15 (11748057_x_at) / Fold change /veh SOX15 (11748057_x_at) / RFU CD79A (11719716_a_at) / Fold change /veh CD79A (11719716_a_at) / RFU HIST1H1D (11736915_at) / Fold change /veh HIST1H1D (11736915_at) / RFU CASKIN2 (11723855_a_at) / Fold change /veh CASKIN2 (11723855_a_at) / RFU LOC730098 (11760151_x_at) / Fold change /veh LOC730098 (11760151_x_at) / RFU OR4N2 (11742367_at) / Fold change /veh OR4N2 (11742367_at) / RFU PRRT2 (11749266_a_at) / Fold change /veh PRRT2 (11749266_a_at) / RFU SNX32 (11753110_a_at) / Fold change /veh SNX32 (11753110_a_at) / RFU CDHR5 (11726645_a_at) / Fold change /veh CDHR5 (11726645_a_at) / RFU RCAN1 (11760418_a_at) / Fold change /veh RCAN1 (11760418_a_at) / RFU FAM167A (11723789_a_at) / Fold change /veh FAM167A (11723789_a_at) / RFU FAM26E (11764081_at) / Fold change /veh FAM26E (11764081_at) / RFU ISYNA1 (11749810_s_at) / Fold change /veh ISYNA1 (11749810_s_at) / RFU ACY1 (11761880_at) / Fold change /veh ACY1 (11761880_at) / RFU 11764098_at / Fold change /veh 11764098_at / RFU SAMD14 (11745864_x_at) / Fold change /veh SAMD14 (11745864_x_at) / RFU NPB (11741838_a_at) / Fold change /veh NPB (11741838_a_at) / RFU TMPRSS6 (11731388_a_at) / Fold change /veh TMPRSS6 (11731388_a_at) / RFU KRTAP10-2 (11738614_at) / Fold change /veh KRTAP10-2 (11738614_at) / RFU ARHGAP8 /// PRR5-ARHGAP8 (11727945_x_at) / Fold change /veh ARHGAP8 /// PRR5-ARHGAP8 (11727945_x_at) / RFU KRTAP5-7 /// NADSYN1 (11734609_at) / Fold change /veh KRTAP5-7 /// NADSYN1 (11734609_at) / RFU RASL12 (11751679_a_at) / Fold change /veh RASL12 (11751679_a_at) / RFU CDKN2B (11736163_a_at) / Fold change /veh CDKN2B (11736163_a_at) / RFU PRF1 (11729649_at) / Fold change /veh PRF1 (11729649_at) / RFU, ZNF638 /// ZNF638-IT1 / Fold change vs veh, ZNF638 /// ZNF638-IT1 / RFU, PANK3 / Fold change vs veh, PANK3 / RFU, SH3YL1 / Fold change vs veh, SH3YL1 / RFU, ZEB2 / Fold change vs veh, ZEB2 / RFU, NRIP1 / Fold change vs veh, NRIP1 / RFU, PTTG1IP / Fold change vs veh, PTTG1IP / RFU, CAPN2 / Fold change vs veh, CAPN2 / RFU, MED14 / Fold change vs veh, MED14 / RFU, SNORA58 / Fold change vs veh, SNORA58 / RFU, C1orf63 / Fold change vs veh, C1orf63 / RFU, LRRFIP1 / Fold change vs veh, LRRFIP1 / RFU, NDUFAF7 / Fold change vs veh, NDUFAF7 / RFU, SLC12A2 / Fold change vs veh, SLC12A2 / RFU, IBTK / Fold change vs veh, IBTK / RFU, ESF1 / Fold change vs veh, ESF1 / Fold change vs veh, TMEM50B / RFU, TAOK1 / Fold change vs veh, TAOK1 / RFU, ACBD3 / Fold change vs veh, ACBD3 / RFU, TMA16 / Fold change vs veh, TMA16 / RFU, RWDD3 / Fold change vs veh, RWDD3 / RFU, BCAT1 / Fold change vs veh, BCAT1 / RFU, EDEM3 / Fold change vs veh, EDEM3 / RFU, TMEM33 / Fold change vs veh, TMEM33 / RFU, WDR75 / Fold change vs veh, WDR75 / RFU, AHCTF1 / Fold change vs veh, AHCTF1 / RFU, TFRC / Fold change vs veh, TFRC / RFU, ZDHHC17 / Fold change vs veh, ZDHHC17 / RFU, NOM1 / Fold change vs veh, NOM1 / RFU, ARL8B / Fold change vs veh, ARL8B / RFU, ZBTB11 / Fold change vs veh, ZBTB11 / RFU, TAMM41 / Fold change vs veh, TAMM41 / RFU, KIAA1704 /// LOC100996395 / Fold change vs veh, KIAA1704 /// LOC100996395 / RFU, ING1 / Fold change vs veh, ING1 / RFU, TRMT61B / Fold change vs veh, TRMT61B / RFU, FUBP3 / Fold change vs veh, FUBP3 / RFU, TP53 / Fold change vs veh, TP53 / RFU, TNKS2 / Fold change vs veh, TNKS2 / RFU, ZFP14 / Fold change vs veh, ZFP14 / RFU, ACTR2 / Fold change vs veh, ACTR2 / RFU, PPP3R1 / Fold change vs veh, PPP3R1 / RFU, PIK3R1 / Fold change vs veh, PIK3R1 / RFU, HNRNPA1 / Fold change vs veh, HNRNPA1 / RFU, RNF170 / Fold change vs veh, RNF170 / RFU, ZNF28 / Fold change vs veh, ZNF28 / RFU, RNGTT / Fold change vs veh, RNGTT / RFU, OGT / Fold change vs veh, OGT / RFU, BRD1 / Fold change vs veh, BRD1 / RFU, MARS / Fold change vs veh, MARS / RFU, ZNF655 / Fold change vs veh, ZNF655 / RFU, FAHD1 / Fold change vs veh, FAHD1 / RFU, BDP1 / Fold change vs veh, BDP1 / RFU, LRRCC1 / Fold change vs veh, LRRCC1 / RFU, ARID1A / Fold change vs veh, ARID1A / RFU, ZNF146 / Fold change vs veh, ZNF146 / RFU, ZNF330 / Fold change vs veh, ZNF330 / RFU, GPN3 / Fold change vs veh, GPN3 / RFU, C9orf123 / Fold change vs veh, C9orf123 / RFU, N4BP2L2 / Fold change vs veh, N4BP2L2 / RFU, ARFIP1 / Fold change vs veh, ARFIP1 / RFU, FAM179B / Fold change vs veh, FAM179B / RFU, BCL10 / Fold change vs veh, BCL10 / RFU, UHRF1BP1L / Fold change vs veh, UHRF1BP1L / RFU, BET1 / Fold change vs veh, BET1 / RFU, CNOT2 / Fold change vs veh, CNOT2 / RFU, ZNF268 / Fold change vs veh, ZNF268 / Fold change vs veh, ZNF507 / RFU, DGCR2 / Fold change vs veh, DGCR2 / RFU, WDSUB1 / Fold change vs veh, WDSUB1 / Fold change vs veh, HSP90B1 /// MIR3652 / RFU, ADSS / Fold change vs veh, ADSS / RFU, GK / Fold change vs veh, GK / RFU, ZNF148 / Fold change vs veh, ZNF148 / RFU, TAF9 / Fold change vs veh, TAF9 / RFU, SLC1A5 / Fold change vs veh, SLC1A5 / RFU, SLMO2 / Fold change vs veh, SLMO2 / RFU, ABCC4 / Fold change vs veh, ABCC4 / RFU, LOC101060439 /// RAP1B / Fold change vs veh, LOC101060439 /// RAP1B / RFU, RFX7 / Fold change vs veh, RFX7 / RFU, GTPBP10 / Fold change vs veh, GTPBP10 / RFU, CNEP1R1 / Fold change vs veh, CNEP1R1 / RFU, BIVM-ERCC5 /// ERCC5 / Fold change vs veh, BIVM-ERCC5 /// ERCC5 / RFU, ILF3 / Fold change vs veh, ILF3 / RFU 11762660_at / Fold change /veh 11762660_at / RFU VCAN (11757783_s_at) / Fold change /veh VCAN (11757783_s_at) / RFU DDX43 (11728927_at) / Fold change /veh DDX43 (11728927_at) / RFU KRT8 (11758188_x_at) / Fold change /veh KRT8 (11758188_x_at) / RFU NKD1 (11759106_at) / Fold change /veh NKD1 (11759106_at) / RFU SRD5A1 (11742802_a_at) / Fold change /veh SRD5A1 (11742802_a_at) / RFU TPSAB1 /// TPSB2 (11721975_s_at) / Fold change /veh TPSAB1 /// TPSB2 (11721975_s_at) / RFU GSTM3 (11746129_a_at) / Fold change /veh GSTM3 (11746129_a_at) / RFU IL23R (11737362_x_at) / Fold change /veh IL23R (11737362_x_at) / RFU TMEM51 (11727254_a_at) / Fold change /veh TMEM51 (11727254_a_at) / RFU PIWIL2 (11732686_x_at) / Fold change /veh PIWIL2 (11732686_x_at) / RFU ORM1 (11744905_x_at) / Fold change /veh ORM1 (11744905_x_at) / RFU CCDC152 (11743942_at) / Fold change /veh CCDC152 (11743942_at) / RFU ECM1 (11717891_a_at) / Fold change /veh ECM1 (11717891_a_at) / RFU IL23R (11748794_a_at) / Fold change /veh IL23R (11748794_a_at) / RFU TNFAIP8L3 (11732012_x_at) / Fold change /veh TNFAIP8L3 (11732012_x_at) / RFU MBOAT4 (11741988_at) / Fold change /veh MBOAT4 (11741988_at) / RFU 11764193_at / Fold change /veh 11764193_at / RFU TMEM53 (11763286_at) / Fold change /veh TMEM53 (11763286_at) / RFU MAGEB2 (11727129_at) / Fold change /veh MAGEB2 (11727129_at) / RFU TMEM200A (11744735_a_at) / Fold change /veh TMEM200A (11744735_a_at) / RFU CCDC152 (11751479_a_at) / Fold change /veh CCDC152 (11751479_a_at) / RFU FAM211A (11726209_a_at) / Fold change /veh FAM211A (11726209_a_at) / RFU RGS16 (11746705_a_at) / Fold change /veh RGS16 (11746705_a_at) / RFU VCAN (11755009_s_at) / Fold change /veh VCAN (11755009_s_at) / RFU RHOB (11743442_s_at) / Fold change /veh RHOB (11743442_s_at) / RFU RGS16 (11720943_a_at) / Fold change /veh RGS16 (11720943_a_at) / RFU RGS16 (11720944_at) / Fold change /veh RGS16 (11720944_at) / RFU, VPS4B / Fold change vs veh, VPS4B / RFU, CREB1 / Fold change vs veh, CREB1 / RFU, DNAJC13 / Fold change vs veh, DNAJC13 / RFU, GNAQ / Fold change vs veh, GNAQ / RFU, CDK5R1 / Fold change vs veh, CDK5R1 / RFU, ZRANB3 / Fold change vs veh, ZRANB3 / RFU, CUL4A / Fold change vs veh, CUL4A / RFU, CCNY / Fold change vs veh, CCNY / RFU, UFL1 / Fold change vs veh, UFL1 / RFU, COG3 / Fold change vs veh, COG3 / RFU, DIAPH2 / Fold change vs veh, DIAPH2 / RFU, SKA2 / Fold change vs veh, SKA2 / RFU, AFF3 / Fold change vs veh, AFF3 / RFU, LMF1 / Fold change vs veh, LMF1 / RFU, IPO11 / Fold change vs veh, IPO11 / RFU, DFFB / Fold change vs veh, DFFB / RFU, FOXP1 / Fold change vs veh, FOXP1 / RFU, CARD8 / Fold change vs veh, CARD8 / RFU, STRN3 / Fold change vs veh, STRN3 / RFU, ADK / Fold change vs veh, ADK / RFU, RASSF2 / Fold change vs veh, RASSF2 / RFU, WIPF1 / Fold change vs veh, WIPF1 / RFU, LARP1B / Fold change vs veh, LARP1B / RFU, RASA1 / Fold change vs veh, RASA1 / RFU, RB1 / Fold change vs veh, RB1 / RFU, PPFIA1 / Fold change vs veh, PPFIA1 / RFU, MAT2A / Fold change vs veh, MAT2A / RFU, CCT5 / Fold change vs veh, CCT5 / RFU, WDR92 / Fold change vs veh, WDR92 / RFU, CUX1 / Fold change vs veh, CUX1 / RFU, TTC7A / Fold change vs veh, TTC7A / RFU, TMEM135 / Fold change vs veh, TMEM135 / RFU, DEPTOR / Fold change vs veh, DEPTOR / RFU, CPM / Fold change vs veh, CPM / RFU, DNAJB6 / Fold change vs veh, DNAJB6 / RFU, CACNA2D3 / Fold change vs veh, CACNA2D3 / RFU, DTX4 / Fold change vs veh, DTX4 / RFU, TFCP2 / Fold change vs veh, TFCP2 / RFU, GMCL1 /// GMCL1P1 / Fold change vs veh, GMCL1 /// GMCL1P1 / RFU, AEBP2 / Fold change vs veh, AEBP2 / RFU, SNHG1 /// SNORD22 /// SNORD25 /// SNORD26 /// SNORD27 /// SNORD28 /// SNORD29 /// SNORD31 / Fold change vs veh, SNHG1 /// SNORD22 /// SNORD25 /// SNORD26 /// SNORD27 /// SNORD28 /// SNORD29 /// SNORD31 / Fold change (Aza/veh), C12orf56 (ProbeSet 11735607_a_at) / Fold change (ACY-1035/veh), C12orf56 (ProbeSet 11735607_a_at) / Fold change (Aza/veh), FGFR1OP (ProbeSet 11751329_s_at) / Fold change (ACY-1035/veh), FGFR1OP (ProbeSet 11751329_s_at) / Fold change (Aza/veh), VPS36 (ProbeSet 11739960_a_at) / Fold change (ACY-1035/veh), VPS36 (ProbeSet 11739960_a_at) / RFU SYPL1 (11715823_x_at) / Fold change /veh SYPL1 (11715823_x_at) / RFU IGFBP7 (11715501_s_at) / Fold change /veh IGFBP7 (11715501_s_at) / RFU REEP3 (11722064_at) / Fold change /veh REEP3 (11722064_at) / RFU IGLL1 (11728026_x_at) / Fold change /veh IGLL1 (11728026_x_at): dose or concentration left out as unconfirmed
Settings: ProbeSet 11747937_a_at; LIST D

Nc1ncn([C@@H]2O[C@H](CO)[C@@H](O)[C@H]2O)c(=O)n1 [azacitidine]
Fold change vs veh, DNAJB6: 0.52
